Patent US20040254252A1, “Compositions containing a combination of a pharmaceutical agent or a cosmetic agent and an oxy group-bearing aromatic aldehyde and their use in treatments” (priority 2003, published 2004)

Key:
[1] = Franz cell percutaneous absorption analysis; format: in vitro ADME, human; conditions: from lotion formulation with 1.0% 4-ethoxybenzaldehyde; 24 hour period
Protocol: This lotion was then tested by Franz cell percutaneous absorption analysis to determine how much 4-EB could penetrate human skin over a 24 hour period. The lotion formulation above provided a flux rate of 4-EB through human skin of 30-50 micrograms/hour.

[2] = test system: IL-1 induction of PGE-2; assay: IL-1 induction of PGE-2 in human skin fibroblasts, ELISA of culture medium; format: cell-based
Protocol: For this experiment, human skin fibroblasts were seeded into 12 well culture dishes at a density of 80,000 cells/wells in tissue culture medium and left overnight to attach to the dish. The next day, medium was removed and replaced with fresh medium containing either 1% ethanol as a diluent control, IL-1 at a concentration of 500 picograms/ml, or IL-1 plus 4-EB at either 250 μM or 500 μM. Cells were incubated for an additional 24 hours and at this time, the medium was removed and assayed by ELISA for the presence of PGE-2 in the culture medium. […] The percent inhibitions are as follows: 4-EB, 100%, 6% and 10% at 50 μM, 10 μM and 1 μM.
Subsequent studies were carried out to determine the dose-response of human skin fibroblasts to 4-EB. […] The results of the study are provided graphically in FIG. 3A.
For this experiment, human skin fibroblasts were seeded into 12 well culture dishes at a density of 80,000 cells/wells in tissue culture medium and left overnight to attach to the dish. The next day, medium was removed and replaced with fresh medium containing either 1% ethanol as a diluent control, IL-1 at a concentration of 500 picograms/ml, or IL-1 plus one of the compounds under investigation at a concentration of 1, 10, 50 or 100 μM. Cells were incubated for an additional 24 hours and at this time, the medium was removed and assayed by ELISA for the presence of PGE-2 in the culture medium.

[3] = test system: TPA-induced PGE2 expression in keratinocytes; assay: TPA-induced PGE-2 in human skin keratinocytes, ELISA of culture medium; format: cell-based; parameters: percent inhibition of TPA-induced PGE-2: unit of the concentration uncertain; conditions: TPA 32 nM
Protocol: Similar in vitro studies as those described in Example 1 were run using human skin keratinocytes. The experimental set up was the same as described for Example 2, but replacing IL-1 with tetradecanoyl phorbol acetate (TPA) at a concentration of 32 nM as the agonist.
Similar in vitro studies as those described in Example 4 were run using human skin keratinocytes. The experimental set up was the same as described for Example 5 but replacing IL-1 with tetradecanoyl phorbol acetate (TPA) at a concentration of 32 nM as the agonist. The compounds tested were 2-ethoxybenzaldehyde (2-EB), and 3-ethoxybenzaldehyde (3-EB) and 4-ethoxybenzaldehyde (4-EB) in concentrations of either 10, 50, or 100 μM.

[4] = test system: UV-induced erythema; assay: UVB-induced erythema on inner forearm of a volunteer, topical lotion; format: in vivo, human; conditions: next day, 14 hours post-irradiation
Protocol: This lotion was then tested to determine if it could prevent an inflammatory response when applied topically to human skin. For this study a lab volunteer was irradiated on a quarter sized spot on the inner forearm with 60-80 mJ of UVB light (a sunlamp). This dose was sufficient to cause a highly visible red erythema response. Immediately following irradiation on both arms, one arm was treated with the above 4-EB lotion while the other arm was treated with the same lotion formulation but with no 4-EB.

| Structure (SMILES) | flux rate of 4-EB through human skin [1] | percent inhibition of IL-1 induced PGE-2 ([2]; 50 μM, IL-1 500 picograms/ml, 24 hours) [%] | block of the IL-1 induction of PGE-2 (in words) ([2]; 100 μM, dose-response study) | inhibition of the IL-1 induction of PGE-2 ([2]; 250 μM, IL-1 500 picograms/ml, 24 hours) | inhibition of the IL-1 induction of PGE-2 ([2]; 500 μM, IL-1 500 picograms/ml, 24 hours) | percent inhibition of TPA-induced PGE-2 ([3]; 50 μM) [%] | percent inhibition of TPA-induced PGE-2 ([3]; 1001 (unit uncertain)) [%] | inhibition at 50 µM ([3]; Homo sapiens, Keratinocyte, 50 μM, read-out: percent inhibition of TPA-induced PGE-2) [%] | inhibition at 100 µM ([3]; Homo sapiens, Keratinocyte, 100 μM, read-out: percent inhibition of TPA-induced PGE-2) [%] | redness of the treated spot [4] | inhibition of the IL-1 induced production of PGE-2 (in words) ([2]; 50 μM) |
| --- | --- | --- | --- | --- | --- | --- | --- | --- | --- | --- | --- |
| CCOc1ccc(C=O)cc1 [4-EB, 4-ethoxybenzaldehyde] | 30-50 micrograms/hour | 82 | completely blocked | complete inhibition | complete inhibition | 79.9 | 94.9 | 79.9 | 94.9 | no redness |  |
| COc1ccc(C=O)cc1 [4-MB, 4-methoxybenzaldehyde] |  |  |  |  |  |  |  |  |  |  | did not appear to inhibit |
